Measurements taken from ChEMBL document CHEMBL4371026, “Prodrugs of the cancer cell selective anti-cancer agent (Z)-2-(1H-indol-3-yl)-3-(isoquinolin-5-yl)acrylonitrile (A131) are orally efficacious in a mouse model of resistant colon cancer” (Bioorg Med Chem Lett, 2019).
Activity calls are given as the source filed them. The calls are words filed in the database; no cut-off is given here.

Legend:
HCT-15 [1] = experiment: Anticancer activity against paclitaxel-resistant human HCT15 cells xenografted in BALB/c athymic mouse assessed as tumor volume at 80 mg/kg, po administered twice a day for 12 days measured on day 9 (reference value: 546 +/- 87 mm3); type: functional
HCT-15 [2] = experiment: Anticancer activity against paclitaxel-resistant human HCT15 cells xenografted in BALB/c athymic mouse assessed as tumor volume at 40 mg/kg, ip administered twice a day for 12 days measured on day 1 (reference value: 110 +/- 11 mm3); type: functional
HCT-15 [3] = experiment: Anticancer activity against paclitaxel-resistant human HCT15 cells xenografted in BALB/c athymic mouse assessed as tumor volume at 40 mg/kg, ip administered twice a day for 12 days measured on day 5 (reference value: 329 +/- 45 mm3); type: functional
HCT-15 [4] = experiment: Anticancer activity against paclitaxel-resistant human HCT15 cells xenografted in BALB/c athymic mouse assessed as tumor volume at 80 mg/kg, po administered twice a day for 12 days measured on day 5 (reference value: 329 +/- 45 mm3); type: functional
HCT-15 [5] = experiment: Anticancer activity against paclitaxel-resistant human HCT15 cells xenografted in BALB/c athymic mouse assessed as tumor growth inhibition at 80 mg/kg, po administered twice a day for 12 days relative to control; type: functional; conditions: HCT-15, po, 288 h, read-out: TGI
HCT-15 [6] = experiment: Anticancer activity against paclitaxel-resistant human HCT15 cells xenografted in BALB/c athymic mouse assessed as tumor volume at 80 mg/kg, po administered twice a day for 12 days measured on day 1 (reference value: 110 +/- 11 mm3); type: functional
HCT-15 [7] = experiment: Anticancer activity against paclitaxel-resistant human HCT15 cells xenografted in BALB/c athymic mouse assessed as tumor volume at 80 mg/kg, po administered twice a day for 12 days measured on day 12 (reference value: 779 +/- 144 mm3); type: functional
HCT-15 [8] = experiment: Anticancer activity against paclitaxel-resistant human HCT15 cells xenografted in BALB/c athymic mouse assessed as tumor volume at 80 mg/kg, po administered twice a day for 12 days measured on day 3 (reference value: 180 +/- 36 mm3); type: functional
[9] = Solubility of the compound in 10%DMSO/50%PEG400/40%H2O; type: physicochemical
HCT-15 [10] = experiment: Anticancer activity against paclitaxel-resistant human HCT15 cells xenografted in BALB/c athymic mouse assessed as tumor volume at 80 mg/kg, po administered twice a day for 12 days measured on day 7 (reference value: 495 +/- 109 mm3); type: functional
HCT-15 [11] = experiment: Anticancer activity against paclitaxel-resistant human HCT15 cells xenografted in BALB/c athymic mouse assessed as tumor volume at 40 mg/kg, ip administered twice a day for 12 days measured on day 12 (reference value: 779 +/- 144 mm3); type: functional
HCT-15 [12] = experiment: Anticancer activity against paclitaxel-resistant human HCT15 cells xenografted in BALB/c athymic mouse assessed as tumor volume at 40 mg/kg, ip administered twice a day for 12 days measured on day 7 (reference value: 495 +/- 109 mm3); type: functional
HCT-15 [13] = experiment: Anticancer activity against paclitaxel-resistant human HCT15 cells xenografted in BALB/c athymic mouse assessed as tumor volume at 40 mg/kg, ip administered twice a day for 12 days measured on day 3 (reference value: 180 +/- 36 mm3); type: functional
HCT-15 [14] = experiment: Anticancer activity against paclitaxel-resistant human HCT15 cells xenografted in BALB/c athymic mouse assessed as tumor volume at 40 mg/kg, ip administered twice a day for 12 days measured on day 9 (reference value: 546 +/- 87 mm3); type: functional
HCT-15 [15] = experiment: Anticancer activity against paclitaxel-resistant human HCT15 cells xenografted in BALB/c athymic mouse assessed as tumor growth inhibition at 40 mg/kg, ip administered twice a day for 12 days; type: functional, organism-based
HCT-15 [16] = experiment: Anticancer activity against paclitaxel-resistant human HCT15 cells xenografted in BALB/c athymic mouse assessed as cell death at 40 mg/kg, ip or 80 mg/kg, po administered twice a day for 12 days by TUNEL staining based assay; type: functional, organism-based
HCT-15 [17] = experiment: Anticancer activity against paclitaxel-resistant human HCT15 cells xenografted in BALB/c athymic mouse assessed as formation of misaligned chromosomes with multipolar spindles at 40 mg/kg, ip or 80 mg/kg, po administered twice a day for 12 days by immunohistochemical analysis; type: functional, organism-based
BJ [18] = experiment: Induction of mitosis in transformed human BJ cells assessed as increase in pH3 Ser10 expression at 5 uM after 24 hrs by Western blot analysis relative to control; type: functional
BJ [19] = experiment: Induction of autophagy in transformed human BJ cells assessed as increase in LC3-2 to LC3-1 ratio at 5 uM after 24 hrs by Western blot analysis relative to control; type: functional
HCT-15 [20] = experiment: Anticancer activity against paclitaxel-resistant human HCT15 cells xenografted in BALB/c athymic mouse assessed as tumor growth inhibition at 20 mg/kg, ip administered twice a day for 12 days; type: functional, organism-based
HCT-15 [21] = experiment: Anticancer activity against paclitaxel-resistant human HCT15 cells xenografted in BALB/c athymic mouse assessed as tumor volume at 20 mg/kg, ip administered twice a day for 12 days measured on day 7 (reference value: 495 +/- 109 mm3); type: functional
HCT-15 [22] = experiment: Anticancer activity against paclitaxel-resistant human HCT15 cells xenografted in BALB/c athymic mouse assessed as tumor volume at 20 mg/kg, ip administered twice a day for 12 days measured on day 3 (reference value: 180 +/- 36 mm3); type: functional
HCT-15 [23] = experiment: Anticancer activity against paclitaxel-resistant human HCT15 cells xenografted in BALB/c athymic mouse assessed as tumor volume at 20 mg/kg, ip administered twice a day for 12 days measured on day 9 (reference value: 546 +/- 87 mm3); type: functional
HCT-15 [24] = experiment: Anticancer activity against paclitaxel-resistant human HCT15 cells xenografted in BALB/c athymic mouse assessed as tumor volume at 20 mg/kg, ip administered twice a day for 12 days measured on day 1 (reference value: 110 +/- 11 mm3); type: functional
HCT-15 [25] = experiment: Anticancer activity against paclitaxel-resistant human HCT15 cells xenografted in BALB/c athymic mouse assessed as tumor volume at 20 mg/kg, ip administered twice a day for 12 days measured on day 12 (reference value: 779 +/- 144 mm3); type: functional
HCT-15 [26] = experiment: Anticancer activity against paclitaxel-resistant human HCT15 cells xenografted in BALB/c athymic mouse assessed as tumor volume at 20 mg/kg, ip administered twice a day for 12 days measured on day 5 (reference value: 329 +/- 45 mm3); type: functional
HCT-15 [27] = experiment: Anticancer activity against paclitaxel-resistant human HCT15 cells xenografted in BALB/c athymic mouse assessed as tumor volume at 40 mg/kg, iv administered thrice every 4 days measured on day 7 (reference value: 495 +/- 109 mm3); type: functional
HCT-15 [28] = experiment: Anticancer activity against paclitaxel-resistant human HCT15 cells xenografted in BALB/c athymic mouse assessed as tumor volume at 40 mg/kg, iv administered thrice every 4 days measured on day 12 (reference value: 779 +/- 144 mm3); type: functional
HCT-15 [29] = experiment: Anticancer activity against paclitaxel-resistant human HCT15 cells xenografted in BALB/c athymic mouse assessed as tumor volume at 40 mg/kg, iv administered thrice every 4 days measured on day 9 (reference value: 546 +/- 87 mm3); type: functional
HCT-15 [30] = experiment: Anticancer activity against paclitaxel-resistant human HCT15 cells xenografted in BALB/c athymic mouse assessed as tumor volume at 40 mg/kg, iv administered thrice every 4 days measured on day 5 (reference value: 329 +/- 45 mm3); type: functional
HCT-15 [31] = experiment: Anticancer activity against paclitaxel-resistant human HCT15 cells xenografted in BALB/c athymic mouse assessed as tumor growth inhibition at 40 mg/kg, iv administered thrice every 4 days; type: functional, organism-based
HCT-15 [32] = experiment: Anticancer activity against paclitaxel-resistant human HCT15 cells xenografted in BALB/c athymic mouse assessed as tumor volume at 40 mg/kg, iv administered thrice every 4 days measured on day 1 (reference value: 110 +/- 11 mm3); type: functional
HCT-15 [33] = experiment: Anticancer activity against paclitaxel-resistant human HCT15 cells xenografted in BALB/c athymic mouse assessed as tumor volume at 40 mg/kg, iv administered thrice every 4 days measured on day 3 (reference value: 180 +/- 36 mm3); type: functional

Structure (SMILES): CN1CCN(CC(=O)n2cc(/C(C#N)=C/c3cccc4cnccc34)c3ccccc32)CC1.O=C(O)C(F)(F)F
- Activity (HCT-15 [1]): 209 mm3
- Activity (HCT-15 [2]): 100 mm3
- Activity (HCT-15 [3]): 199 mm3
- Activity (HCT-15 [4]): 143 mm3
- inhibition in vivo at 80 mg/kg (HCT-15 [5]): 75.8 to 76%
- Activity (HCT-15 [6]): 96 mm3
- Activity (HCT-15 [7]): 258 mm3
- Activity (HCT-15 [8]): 95 mm3
- solubility [9]: 8000 µg/mL
- Activity (HCT-15 [10]): 165 mm3
- Activity (HCT-15 [11]): 244 mm3
- Activity (HCT-15 [12]): 171 mm3
- Activity (HCT-15 [13]): 109 mm3
- Activity (HCT-15 [14]): 196 mm3

Structure (SMILES): CN1CCN(CC(=O)n2cc(/C(C#N)=C/c3cccc4cnccc34)c3ccccc32)CC1
- TGI (HCT-15 [15]): Active
- Activity (HCT-15 [16]): Active
- Activity (HCT-15 [17]): Active

Structure (SMILES): CC(C)(C)OC(=O)N1CCC(C(=O)n2cc(/C(C#N)=C/c3cccc4cnccc34)c3ccccc32)CC1
- fold change (FC) (BJ [18]): 16.2
- fold change (FC) (BJ [19]): 5.2

Structure (SMILES): N#C/C(=C\c1cccc2cnccc12)c1c[nH]c2ccccc12
- TGI (HCT-15 [20]): Active

Structure (SMILES): CCN(CC)C(=O)n1cc(/C(C#N)=C/c2cccc3cnccc23)c2ccccc21
- fold change (FC) (BJ [18]): 0.6
- fold change (FC) (BJ [19]): 0.9

Structure (SMILES): Cl.N#C/C(=C\c1cccc2cnccc12)c1c[nH]c2ccccc12
- Activity (HCT-15 [21]): 204 mm3
- Activity (HCT-15 [22]): 125 mm3
- Activity (HCT-15 [23]): 225 mm3
- Activity (HCT-15 [24]): 116 mm3
- Activity (HCT-15 [25]): 289 mm3
- Activity (HCT-15 [26]): 153 mm3

Structure (SMILES): CC(=O)O[C@H]1C(=O)[C@@]2(C)[C@H]([C@H](OC(=O)c3ccccc3)[C@]3(O)C[C@H](OC(=O)[C@H](O)[C@@H](NC(=O)c4ccccc4)c4ccccc4)C(C)=C1C3(C)C)[C@]1(OC(C)=O)CO[C@@H]1C[C@@H]2O [PACLITAXEL]
- Activity (HCT-15 [27]): 321 mm3
- Activity (HCT-15 [28]): 638 mm3
- Activity (HCT-15 [29]): 409 mm3
- Activity (HCT-15 [30]): 288 mm3
- TGI (HCT-15 [31]): Active
- Activity (HCT-15 [32]): 119 mm3
- Activity (HCT-15 [33]): 152 mm3

Structure (SMILES): CN1CCN(C(=O)Cn2cc(/C(C#N)=C/c3cccc4cnccc34)c3ccccc32)CC1
- fold change (FC) (BJ [18]): 1.3
- fold change (FC) (BJ [19]): 1.9
